Experiments:
[1] = system: NCI-H1975 (ATCC CRL-5908) cell line comprising an EGFR T790M L858R double mutation; assay: EGFR-SOS cellular inhibition assay (CellTiter-Glo cell proliferation); format: cell-based; conditions: Homo sapiens, 120 h; NCI-H1975 cell proliferation, approximately 5 days; read-out: H1975 IC50
Description: A CellTiter-Glo (CTG) luminescent based assay (Promega) is used to assess growth of the cells, as a measurement of the ability of the compounds herein to inhibit EGFR signaling in the cells. […] The day after plating, cells are treated with a dilution series (e.g., a 9 point 3-fold dilution series) of the compounds herein (e.g., approximately 125 μL final volume per well).

SOS1 = SOS1 (Homo sapiens (Human), UniProt Q07889); assay: Ras-SOS interaction assay (HTRF), K-Ras G13D utilized; format: binding; conditions: K-Ras G13D, read-out: SOS1 IC50
Chain of SOS1 (Q07889 564-1049): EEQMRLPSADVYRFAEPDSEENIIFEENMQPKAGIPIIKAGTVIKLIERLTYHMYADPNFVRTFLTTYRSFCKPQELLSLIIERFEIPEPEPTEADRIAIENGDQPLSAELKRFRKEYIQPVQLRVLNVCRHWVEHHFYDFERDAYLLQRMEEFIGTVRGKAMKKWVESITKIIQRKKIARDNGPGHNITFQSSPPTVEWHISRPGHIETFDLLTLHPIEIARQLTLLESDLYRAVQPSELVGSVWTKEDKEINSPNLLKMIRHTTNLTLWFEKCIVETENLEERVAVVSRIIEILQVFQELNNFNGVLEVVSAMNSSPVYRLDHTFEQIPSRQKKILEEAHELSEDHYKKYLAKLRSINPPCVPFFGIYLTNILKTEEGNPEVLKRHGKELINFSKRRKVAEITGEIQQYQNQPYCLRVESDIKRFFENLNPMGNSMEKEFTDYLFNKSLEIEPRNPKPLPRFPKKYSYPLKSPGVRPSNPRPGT

## Cc1nc2c3cc(C4(C#N)CC4)c(=O)n(c3n1)CCCCCCCOCC(F)(F)c1cccc(c1F)[C@@H](C)N2 [Compound 44, 1-((3R)-4^2,5,5-trifluoro-1^2,3-dimethyl-1^7-oxo-1^7,1^8-dihydro-7-oxa-2-aza-1(4,8)-pyrido[2,3-d]pyrimidina-4(1,3)-benzenacyclotetradecaphane-1^6-yl)cyclopropane-1-carbonitrile]
[1]
  IC50: 1000 to 10000 nM
SOS1
  IC50: 100 to 5000 nM

## C[C@H]1Nc2ncnc3c2cc(C2CCS(=O)(=O)CC2)c(=O)n3CC(=O)N(C)CCCCN2CCC(CC2)C(F)(F)c2cccc1c2 [Compound 46, (4R)-6^6-(1,1-dioxidotetrahydro-2H-thiopyran-4-yl)-2,2-difluoro-4,9-dimethyl-6^7,6^8-dihydro-5,9-diaza-6(4,8)-pyrido[2,3-d]pyrimidina-1(4,1)-piperidina-3(1,3)-benzenacyclotridecaphane-6^7,8-dione]
[1]
  IC50: < 1000 nM
SOS1
  IC50: < 100 nM

## C[C@H]1Nc2ncnc3c2cc(C2CCS(=O)(=O)CC2)c(=O)n3CCCCCCCCCN2CCC(CC2)C(F)(F)c2cccc1c2 [Compound 47, (4R)-6^6-(1,1-dioxidotetrahydro-2H-thiopyran-4-yl)-2,2-difluoro-4-methyl-6^7,6^8-dihydro-5-aza-6(4,8)-pyrido[2,3-d]pyrimidina-1(4,1)-piperidina-3(1,3)-benzenacyclopentadecaphan-6^7-one]
[1]
  IC50: < 1000 nM
SOS1
  IC50: < 100 nM

## Cc1nc2c3cc(C4(C#N)CC4)c(=O)n(c3n1)CCCCCCCCOCC(F)(F)c1cccc(c1F)[C@@H](C)N2 [Compound 49, 1-((3R)-4^2,5,5-trifluoro-1^2,3-dimethyl-1^7-oxo-1^7,1^8-dihydro-7-oxa-2-aza-1(4,8)-pyrido[2,3-d]pyrimidina-4(1,3)-benzenacyclopentadecaphane-1^6-yl)cyclopropane-1-carbonitrile]
[1]
  IC50: < 1000 nM
SOS1
  IC50: < 100 nM

## CC(C)N1CCN(c2cc3c4ncnc3n(c2=O)CCCCCCN2CCC(CC2)CC(F)(F)c2cccc(c2)[C@@H](C)N4)CC1 [Compound 50, (3R)-5,5-difluoro-1^6-(4-isopropylpiperazin-1-yl)-3-methyl-1^7,1^8-dihydro-2-aza-1(4,8)-pyrido[2,3-d]pyrimidina-7(4,1)-piperidina-4(1,3)-benzenacyclotridecaphan-1^7-one]
[1]
  IC50: < 1000 nM
SOS1
  IC50: < 100 nM

## C[C@H]1Nc2ncnc3c2cc(C2(C#N)CC2)c(=O)n3CC(=O)N(C)CCCCN2CCC(CC2)C(F)(F)c2cccc1c2 [Compound 52, 1-((4R)-2,2-difluoro-4,9-dimethyl-6^7,8-dioxo-6^7,6^8-dihydro-5,9-diaza-6(4,8)-pyrido[2,3-d]pyrimidina-1(4,1)-piperidina-3(1,3)-benzenacyclotridecaphane-6^6-yl)cyclopropane-1-carbonitrile]
[1]
  IC50: < 1000 nM
SOS1
  IC50: < 100 nM

## CC(C)N1CCN(c2cc3c4ncnc3n(c2=O)CC(=O)NCCCCN2CCC(CC2)C(F)(F)c2cccc(c2)[C@@H](C)N4)CC1 [Compound 53, (4R)-2,2-difluoro-6^6-(4-isopropylpiperazin-1-yl)-4-methyl-6^7,6^8-dihydro-5,9-diaza-6(4,8)-pyrido[2,3-d]pyrimidina-1(4,1)-piperidina-3(1,3)-benzenacyclotridecaphane-6^7,8-dione]
[1]
  IC50: < 1000 nM
SOS1
  IC50: < 100 nM

## C[C@H]1Nc2ncnc3c2cc(C2CCS(=O)(=O)CC2)c(=O)n3CCCCCC(C)(C)CN2CCC(CC2)C(F)(F)c2cccc1c2 [Compound 55, (4R)-6^6-(1,1-dioxidotetrahydro-2H-thiopyran-4-yl)-2,2-difluoro-4,12,12-trimethyl-6^7,6^8-dihydro-5-aza-6(4,8)-pyrido[2,3-d]pyrimidina-1(4,1)-piperidina-3(1,3)-benzenacyclotridecaphan-6^7-one]
[1]
  IC50: < 1000 nM
SOS1
  IC50: < 100 nM

## C[C@H]1Nc2ncnc3c2cc(N2CCN(C)CC2)c(=O)n3CCCCCCCN2CCC(CC2)C(F)(F)c2cccc1c2F [Compound 57, (4R)-3^2,2,2-trifluoro-4-methyl-6^6-(4-methylpiperazin-1-yl)-6^7,6^8-dihydro-5-aza-6(4,8)-pyrido[2,3-d]pyrimidina-1(4,1)-piperidina-3(1,3)-benzenacyclotridecaphan-6^7-one]
[1]
  IC50: < 1000 nM
SOS1
  IC50: < 100 nM

## C[C@H]1Nc2ncnc3c2cc(C2(C#N)CC2)c(=O)n3CCCCCC(O)CN2CCC(CC2)C(F)(F)c2cccc1c2 (stereo partly drawn) [Compound 58, 1-((4R)-2,2-difluoro-12-hydroxy-4-methyl-6^7-oxo-6^7,6^8-dihydro-5-aza-6(4,8)-pyrido[2,3-d]pyrimidina-1(4,1)-piperidina-3(1,3)-benzenacyclotridecaphane-6^6-yl)cyclopropane-1-carbonitrile]
[1]
  IC50: < 1000 nM
SOS1
  IC50: < 100 nM

## C[C@H]1Nc2ncnc3c2cc(C2CCS(=O)(=O)CC2)c(=O)n3CC(=O)NCCCCN2CCC(CC2)C(F)(F)c2cccc1c2 [Compound 60, (4R)-6^6-(1,1-dioxidotetrahydro-2H-thiopyran-4-yl)-2,2-difluoro-4-methyl-6^7,6^8-dihydro-5,9-diaza-6(4,8)-pyrido[2,3-d]pyrimidina-1(4,1)-piperidina-3(1,3)-benzenacyclotridecaphane-6^7,8-dione]
[1]
  IC50: < 1000 nM
SOS1
  IC50: < 100 nM

## C[C@H]1Nc2ncnc3c2cc(C2CCS(=O)(=O)CC2)c(=O)n3CCCOCCCCN2CCC(CC2)C(F)(F)c2cccc1c2 [Compound 62, (4R)-66-(1,1-dioxidotetrahydro-2H-thiopyran-4-yl)-2,2-difluoro-4-methyl-67,68-dihydro-10-oxa-5-aza-6(4,8)-pyrido[2,3-d]pyrimidina-1(4,1)-piperidina-3(1,3)-benzenacyclotetradecaphan-67-one]
[1]
  IC50: < 1000 nM
SOS1
  IC50: < 100 nM

## CC1CCCCCCn2c(=O)c(C3(C#N)CC3)cc3c(ncnc32)N[C@H](C)c2cccc(c2)C(F)(F)C2CCN1CC2 (stereo partly drawn) [Compound 63, 1-((4R)-2,2-difluoro-4,13-dimethyl-6^7-oxo-6^7,6^8-dihydro-5-aza-6(4,8)-pyrido[2,3-d]pyrimidina-1(4,1)-piperidina-3(1,3)-benzenacyclotridecaphane-6^6-yl)cyclopropane-1-carbonitrile]
[1]
  IC50: < 1000 nM
SOS1
  IC50: < 100 nM

## C[C@H]1Nc2ncnc3c2cc(N2CCOCC2)c(=O)n3CCCCCCCN2CCC(CC2)C(F)(F)c2cccc1c2 [Compound 64, (4R)-2,2-difluoro-4-methyl-6^6-morpholino-6^7,6^8-dihydro-5-aza-6(4,8)-pyrido[2,3-d]pyrimidina-1(4,1)-piperidina-3(1,3)-benzenacyclotridecaphan-6^7-one]
[1]
  IC50: < 1000 nM
SOS1
  IC50: < 100 nM

## C[C@H]1Nc2ncnc3c2cc(C2(C#N)CC2)c(=O)n3CCCC/C=C/CN2CCC(CC2(C)C)C(F)(F)c2cccc1c2 (stereo partly drawn) [Compound 70, 1-((4R,E)-2,2-difluoro-1^2,1^2,4-trimethyl-6^7-oxo-6^7,6^8-dihydro-5-aza-6(4,8)-pyrido[2,3-d]pyrimidina-1(4,1)-piperidina-3(1,3)-benzenacyclotridecaphan-11-en-6^6-yl)cyclopropane-1-carbonitrile]
[1]
  IC50: < 1000 nM
SOS1
  IC50: < 100 nM

## C[C@H]1Nc2ncnc3c2cc(C2(C#N)CC2)c(=O)n3CCNC(=O)CCCN2CCC(CC2)C(F)(F)c2cccc1c2 [Compound 71, 1-((4R)-2,2-difluoro-4-methyl-6^7,10-dioxo-6^7,6^8-dihydro-5,9-diaza-6(4,8)-pyrido[2,3-d]pyrimidina-1(4,1)-piperidina-3(1,3)-benzenacyclotridecaphane-6^6-yl)cyclopropane-1-carbonitrile]
[1]
  IC50: < 1000 nM
SOS1
  IC50: < 100 nM

## C[C@@H]1CCCNC(=O)Cn2c(=O)c(C3(C#N)CC3)cc3c(ncnc32)N[C@H](C)c2cccc(c2F)C(F)(F)C2CCN1CC2 [Compound 72, 1-((4R,13R)-3^2,2,2-trifluoro-4,13-dimethyl-6^7,8-dioxo-6^7,6^8-dihydro-5,9-diaza-6(4,8)-pyrido[2,3-d]pyrimidina-1(4,1)-piperidina-3(1,3)-benzenacyclotridecaphane-6^6-yl)cyclopropane-1-carbonitrile]
[1]
  IC50: < 1000 nM
SOS1
  IC50: < 100 nM

## CC(C)N1CCC(c2cc3c4ncnc3n(c2=O)CCCCCCCN2CCC(CC2)C(F)(F)c2cccc(c2)[C@@H](C)N4)CC1 [Compound 73, (4R)-2,2-difluoro-6^6-(1-isopropylpiperidin-4-yl)-4-methyl-6^7,6^8-dihydro-5-aza-6(4,8)-pyrido[2,3-d]pyrimidina-1(4,1)-piperidina-3(1,3)-benzenacyclotridecaphan-6^7-one]
[1]
  IC50: < 1000 nM
SOS1
  IC50: < 100 nM

## C[C@H]1Nc2ncnc3c2cc(C2CCS(=O)(=O)CC2)c(=O)n3CCCC/C=C/CN2CCC(CC2(C)C)C(F)(F)c2cccc1c2 (stereo partly drawn) [Compound 74, (4R,E)-6^6-(1,1-dioxidotetrahydro-2H-thiopyran-4-yl)-2,2-difluoro-1^2,1^2,4-trimethyl-6^7,6^8-dihydro-5-aza-6(4,8)-pyrido[2,3-d]pyrimidina-1(4,1)-piperidina-3(1,3)-benzenacyclotridecaphan-11-en-6^7-one]
[1]
  IC50: < 1000 nM
SOS1
  IC50: < 100 nM

## C[C@H]1Nc2ncnc3c2cc(C2(C#N)CCOCC2)c(=O)n3CCCCCCCN2CCC(CC2)C(F)(F)c2cccc1c2 [Compound 76, 4-((4R)-2,2-difluoro-4-methyl-6^7-oxo-6^7,6^8-dihydro-5-aza-6(4,8)-pyrido[2,3-d]pyrimidina-1(4,1)-piperidina-3(1,3)-benzenacyclotridecaphane-6^6-yl)tetrahydro-2H-pyran-4-carbonitrile]
[1]
  IC50: < 1000 nM
SOS1
  IC50: < 100 nM

## CC(C)N1CCN(c2cc3c4ncnc3n(c2=O)CCCOCCCCN2CCC(CC2)C(F)(F)c2cccc(c2F)[C@@H](C)N4)CC1 [Compound 77, (4R)-3^2,2,2-trifluoro-6^6-(4-isopropylpiperazin-1-yl)-4-methyl-6^7,6^8-dihydro-10-oxa-5-aza-6(4,8)-pyrido[2,3-d]pyrimidina-1(4,1)-piperidina-3(1,3)-benzenacyclotetradecaphan-6^7-one]
[1]
  IC50: < 1000 nM
SOS1
  IC50: < 100 nM
